Data set [1] concerns dorsal root ganglion (DRG) neurons. It is filed as cell-based, mouse.
Another data set concerns morphine-dependent rats. Also on record: species or system Wistar rats. The following applies: rat, in vivo.
For data set [2], the system named is morphine-dependent monkeys. Also on record: species or system rhesus monkeys (Macaca mulatta). To be noted: rhesus monkey, in vivo.
In a further data set the test system is opiate addicts. The following applies: in vivo.
The subject of data set [3] is morphine-dependent monkeys. To be noted: rhesus monkey, in vivo.
The subject of data set [4] is dorsal root ganglion (DRG) neurons. To be noted: nM-μM; cited from earlier work.
The conditions of data set [5]: in vivo; cited from earlier work.
The subject of data set [6] is chronic opioid-treated DRG neurons. The format is cell-based, mouse.

“Also recorded” adds a separate entry of the source. Where only a bound is given, the exact number is not on record here.

For the molecule `CN1CC[C@]23CCCC[C@H]2[C@H]1Cc1ccc(O)cc13` [Levorphenol], in data set [1], the “Alteration of action potential duration, opioid at high concentration” value was “Shortening” and the “Alteration of action potential duration, opioid at low concentration” value is listed as “Prolongation”.

As to `CCC(=O)C(CC(C)N(C)C)(c1ccccc1)c1ccccc1` (stereo not shown) [Methadone, methadone], in the data set on morphine-dependent rats, the “prevention of body weight loss” value is 48.15% and the “suppression of other withdrawal symptoms” value is reported as 49.4%. In addition, in the data set on morphine-dependent rats (ip), the “effect on naloxone induced withdrawal symptoms” value is reported as “suppressed”. In the data set with morphine-dependent rats (sc), the “effect on body weight loss” value is “prevent further body weight loss”; the “second naloxone test, withdrawal symptoms” value was “less severe withdrawal symptoms in comparison to the morphine group, yet more severe when compare with the DHE group”; the “significance of effect on body weight loss vs untreated (saline) control” value is recorded as “highly significant”. In data set [2], the “Scores of withdrawal syndromes, 1st naloxone precipitation (X ± SD)” value came to 17.0 ± 4.6; the “Scores of withdrawal syndromes, 2nd naloxone precipitation (X ± SD)” value is on record as 1.3 ± 1.2; the “naloxone precipitation test on day 9” value is “naloxone precipitated withdrawal symptoms”; the “naloxone withdrawal symptoms after maintenance or substitution treatment” value is reported as “moderate naloxone withdrawal symptoms”. Moreover, in data set [2], the “withdrawal symptoms between injections during substitution” value is “some moderate withdrawal symptoms” and the “withdrawal symptoms during the first several days of substitution” value is “partially suppressed”. In data set [1], the “Alteration of action potential duration, opioid at high concentration” value is listed as “inhibitory APD-shortening” and the “Alteration of action potential duration, opioid at low concentration” value is given as “excitatory APD-prolonging; also recorded: Prolongation”. Moreover, in the data set with opiate addicts, the “addiction resulting from substitution treatment” value is given as “invariably results in transfer to methadone addiction”, the “rebound of withdrawal symptoms” value is “often results in the rebound of withdrawal symptoms”, the “side effects during substitution treatment” value is given as “negligible” and the “time before symptomatic relief” value was “one to several”.

For `CN1CC[C@]23c4c5ccc(O)c4O[C@H]2[C@@H](O)C=C[C@H]3[C@H]1C5` [Morphine, morphine], in the data set on morphine-dependent rats, the “prevention of body weight loss” value is on record as 43.5% and the “suppression of other withdrawal symptoms” value is 45.5%. In the data set on morphine-dependent rats (sc), the “time to complete recovery of weight loss” value is 48 h and the “time to reversal of body weight loss” value amounted to 3 h. For the same molecule, in data set [3], the “time after withdrawal at which withdrawal symptoms began” value was “Sixteen”.

On to `C=CCN1CC[C@]23c4c5ccc(O)c4O[C@H]2C(=O)CC[C@@]3(O)[C@H]1C5` [naloxone], for which, in the data set with morphine-dependent rats (ip, 4 mg/kg), the “peak response of naloxone induced withdrawal symptoms” value is listed as at most 15 min, the “time of maximum body weight loss after naloxone precipitation” value came out at 24 h and the “time to gradual weight recovery after naloxone precipitation” value was determined as 90 h. Besides, the “effect of naloxone on the APD of naive DRG neurons” value in data set [4] is recorded as “does not alter the APD; also recorded: ineffective”. In data set [5], the “oral or sublingual bioavailability” value is reported as “low”. Besides, the “naloxone effect on APD of chronic opioid-treated DRG neurons” value in data set [6] is given as “excitatory APD-prolonging effect; also recorded: prolongs the APD”.

These data come from patent US5624932A (priority 1995, dated 1997).
